# Results taken from US12644133B2, “Methods and compositions to increase somatic cell nuclear transfer (SCNT) efficiency by removing histone H3-lysine trimethylation” (The Children's Medical Center Corporation, priority 2014, dated 2026).
# Tested on: SCNT embryos
# Assay: Preimplantation development of SCNT embryos cultured in vitro
# Type: cell-based, mouse
# Conditions: for No. of blastocyst / blastocyst (% per 1-cell): ntESC derivation experiment
# From the text: C57BL/6J female mice were mated with DBA/2J males to produce B6D2F1/J (BDF1) mice. BDF1 and CD-1 (ICR) adult females were used for the collection of recipient oocytes and embryo transfer recipients, respectively. BDF1 mice were used for the collection of donor somatic cells for the analyses of development. (C57BL/6×CAST/EiJ) F1 mice were used for the collection of donor cells for RNA-seq. E13.5 embryos harboring GOF18 delta-PE (Jackson Laboratory, 004654: Tg(Pou5f1-EGFP)2Mnn, C57BL/6J background) were used for the isolation of mouse embryonic fibroblasts (MEF). All animal experiments were approved by the Institutional Animal Care and Use Committee of Harvard Medical School.
# Cumulus cells were collected from adult BDF1 females through superovulation by injecting 7.5 IU of pregnant mare serum gonadotropin (PMSG; Harbor) and 7.5 IU of human chorionic gonadotropin (hCG; Millipore). Fifteen hours after the hCG injection, cumulus-oocyte complexes (COCs) were collected from the oviducts and briefly treated with Hepes-buffered potassium simplex-optimized medium (KSOM) containing 300 U/ml bovine testicular hyaluronidase (Calbiochem #385931) to obtain dissociated cumulus cells. Sertoli cells were collected from testes of 3- to 5-day-old BDF1 male mice as described (Matoba et al., 2011). Testicular masses were incubated in PBS containing 0.1 mg/ml collagenase (Life Technologies #17104-019) for 30 min at 37° C. followed by 5 min treatment with 0.25% Trypsine with 1 mM EDTA (Life Technologies #25200-056) at room temperature. After washing for four times with PBS containing 3 mg/ml bovine serum albumin, the dissociated cells were suspended in Hepes-KSOM medium.
# Primary mouse embryonic fibroblast (MEF) cells were established from GOF18 delta-PE mouse embryos at 13.5 dpc. After removal of head and all organs, minced tissue from remaining corpus was dissociated in 500 μl of 0.25% Trypsine with 1 mM EDTA for 10 min at 37° C. Cell suspension was diluted with equal amount of DMEM (Life Technologies #11995-073) containing 10% FBS and Penicillin/Streptomycin (Life Technologies #15140-022) and pipetted up and down for 20 times. The cell suspension was diluted with fresh medium and plated onto 100 mm dishes and cultured at 37° C. Two days later, MEF cells were harvested and frozen. Frozen stocks of MEF cells were thawed and used for experiments after one passage.
# siRNAs against mouse Suv39h1 (Life Technologies #s74607), Suv39h2 (Life Technologies #s82300) and Setdb1 (Life Technologies #s96549) were diluted in nuclease free water at 50 μM stock solutions. siRNAs were introduced to MEFs with Lipofectamine RNAi Max (Life technologies #35050-061) following manufacturer's protocol. Briefly, 1×10^5 MEF cells were seeded onto 24-well plate (day 0; see FIG. 5A). Twenty-four hours later, […] siRNAs were transfected into MEF cells using Lipofectamine RNAi Max (day 1). Twenty-four hours after the first transfection, the culture media was changed to fresh M293T media [DMEM supplemented with 10% FBS, 0.1 mM non-essential amino acids (Life technologies #11140-050), 2 mM GlutaMAX (Life technologies #35050-079), 50 U/ml penicillin-streptomycin and 0.1 mM 2-mercaptoethanol (Life technologies #21985-023)] (day 2). On day 3, MEF cells were reseeded onto 24-well plates at the density of 1×10^5 cells. Then transfection was repeated once as described above (day 4). Forty-eight hours after the second transfection (day 6), MEF cells were used for immunostaining, RT-qPCR or SCNT.
# Somatic cell nuclear transfer was carried out as described previously (Matoba et al., 2011). Briefly, recipient MII oocytes were collected from superovulated adult BDF1 females by brief treatment with 300 U/ml bovine testicular hyaluronidase (Calbiochem). Isolated MII oocytes were enucleated in Hepes-buffered KSOM medium containing 7.5 μg/ml of cytochalasin B (Calbiochem #250233). […]
# [1] = MEF donor cells (C57BL/6, male) treated with transfection reagent alone, injected mRNA 1800 ng/μl
# [2] = Sertoli donor cells (BDF1, male), injected mRNA 1800 ng/μl
# [3] = cumulus donor cells (BDF1, female), TSA treatment 15 nM for 8 h, water or mRNA 1800 ng/μl injected
# [4] = cumulus donor cells (BDF1, female), no TSA, injected mRNA 1800 ng/μl
# [5] = cumulus donor cells (BDF1, female), no TSA, mRNA 1800 ng/μl
substance,measurement,setting,value
"Kdm4d WT mRNA: in vitro transcribed full length mouse Kdm4d mRNA, encoding an H3K9me3-specific histone demethylase",% 4-cell per 2-cell ± SD,[1],95.4 ± 5.5 %
same,% blast per 2-cell ± SD,[1],82.0 ± 10.3 %
same,% cleaved per 1-cell ± SD,[1],86.9 ± 8.8%
same,% morula per 2-cell ± SD,[1],89.6 ± 7.9 %
same,developmental efficiency of SCNT embryos (in words),Sertoli cells or C57BL/6 background MEF cells as donor cells,significantly improved the developmental efficiency
same,% 4-cell per 2-cell ± SD,[2],95.3 ± 3.6 %
same,% blast per 2-cell ± SD,[2],81.2 ± 7.5 %
same,% cleaved per 1-cell ± SD,[2],89.3 ± 8.4%
same,% morula per 2-cell ± SD,[2],91.6 ± 6.4 %
same,% 4-cell per 2-cell ± SD,[3],95.8 ± 0.0 %
same,% cleaved per 1-cell ± SD,[3],94.1 ± 0.0%
same,% morula per 2-cell ± SD,[3],93.8 ± 6.3 %
same,% blast per 2-cell ± SD,"cumulus donor cells (BDF1, female), TSA treatment 15 nM for 8 h, water or mRNA 1800 ng/μl injected, listed as Kdm4d WT",87.5 ± 12.5 %
same,% blast per 2-cell ± SD,"cumulus donor cells (BDF1, female), TSA treatment 15 nM for 8 h, water or mRNA 1800 ng/μl injected, listed as Kdm4d mRNA",87.5%
same,% 4-cell per 2-cell ± SD,[4],98.9 ± 2.3 %
same,% cleaved per 1-cell ± SD,[4],92.7 ± 6.2%
same,% morula per 2-cell ± SD,[4],96.5 ± 4.4 %
same,% blast per 2-cell ± SD,"cumulus donor cells (BDF1, female), no TSA, injected mRNA 1800 ng/μl, 96 h culture, listed as Kdm4d",88.6%
same,% blast per 2-cell ± SD,"cumulus donor cells (BDF1, female), no TSA, injected mRNA 1800 ng/μl, 96 h culture, listed as Kdm4d WT",88.6 ± 3.9 %
same,% blast per 2-cell ± SD,"cumulus donor cells (BDF1, female), no TSA, injected mRNA 1800 ng/μl, 96 h culture, listed as wild-type Kdm4d mRNA",88.6%
same,No. of blastocyst,[3],21
same,blastocyst (% per 1-cell),[3],95.5%
same,No. of blastocyst,[5],18
same,blastocyst (% per 1-cell),[5],94.7%
